We go through two compounds from PMC12858405, “Ideal efficacy photoswitching for chromocontrol of TRPC4/5 channel functions in live tissues” (Nature Chemical Biology, 2026).

The IC50 is the concentration that inhibits the measured activity by half. Usually EC50 stands for the concentration at which the effect is half-maximal.

Test [1] concerns the target T1, EA-activated TRPC5 (Mus musculus, UniProt Q9QX29).
T1 construct: expressed in transfected cells; host or cells: HEK293-mTRPC5-YFP
T1 sequence (Q9QX29 1-975): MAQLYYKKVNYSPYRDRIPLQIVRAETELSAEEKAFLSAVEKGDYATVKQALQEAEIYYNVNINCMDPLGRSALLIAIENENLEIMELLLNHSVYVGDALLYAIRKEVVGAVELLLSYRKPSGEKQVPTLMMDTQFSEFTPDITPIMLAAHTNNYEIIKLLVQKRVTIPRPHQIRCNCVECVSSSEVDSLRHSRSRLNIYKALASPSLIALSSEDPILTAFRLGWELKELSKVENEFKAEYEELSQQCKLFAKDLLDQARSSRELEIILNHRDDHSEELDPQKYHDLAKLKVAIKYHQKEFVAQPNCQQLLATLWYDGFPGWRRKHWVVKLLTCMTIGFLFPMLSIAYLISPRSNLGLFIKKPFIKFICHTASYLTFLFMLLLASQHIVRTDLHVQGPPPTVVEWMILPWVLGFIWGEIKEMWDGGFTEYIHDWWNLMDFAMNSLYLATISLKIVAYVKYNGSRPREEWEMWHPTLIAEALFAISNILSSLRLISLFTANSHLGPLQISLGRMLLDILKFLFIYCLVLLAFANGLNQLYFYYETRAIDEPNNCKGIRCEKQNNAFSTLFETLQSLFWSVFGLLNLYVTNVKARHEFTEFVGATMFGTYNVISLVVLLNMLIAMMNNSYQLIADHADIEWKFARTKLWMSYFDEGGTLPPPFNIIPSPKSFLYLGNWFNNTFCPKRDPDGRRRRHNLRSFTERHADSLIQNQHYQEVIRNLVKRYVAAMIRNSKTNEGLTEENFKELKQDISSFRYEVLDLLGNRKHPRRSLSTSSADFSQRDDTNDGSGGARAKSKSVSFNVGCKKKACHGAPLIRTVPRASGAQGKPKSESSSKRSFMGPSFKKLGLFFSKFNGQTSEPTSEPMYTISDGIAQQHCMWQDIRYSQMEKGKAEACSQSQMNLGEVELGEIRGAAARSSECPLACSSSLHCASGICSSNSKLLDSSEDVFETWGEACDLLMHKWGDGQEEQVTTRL
The test can be described thus: FLIPR Ca2+ assay, E isomers silencing EA-activated TRPC5 (HEK293-mTRPC5-YFP). Format: cell-based. The text has this:
Müller, Niemeyer, et al., Schaefer & Thorn-Seshold 2025: Ideal Efficacy Photoswitching of TRPC4/5 in Tissue but it can justify why the affinity of the E/Z-isomers may be similar.
(§1) (2) The EC50 values are reported as the midpoints of unconstrained sigmoidal fits to the FLIPR data (Fig 1l and Supplementary Fig. 2): with different levels of channel activation / blocking and very different Hill slopes across different compounds, isomers, and the two channels. This argues that the midpoint values only capture one of the several important factors describing the […]
(§2) We believe that it is possible to derive indicative relative values for binding affinity comparing the E and Z isomers of the same compound using only the combination of FLIPR and ephys data as reported in this paper; this analysis is being developed in a separate paper (see also below).
(§3) Supplementary Table 1. Potencies on TRPC4/5 depicted as either simple agonistic potency (blue) or else inhibitory […]
(§4) . Z*-values refer to mostly-Z-isomer reached at PSS at 365 nm, E*-values refer to experiments that initially applied 100% E-isomer (thermally relaxed), though in both cases the Ca2+ imaging in FLIPR with Fluo4-AM uses 470 nm excitation, which may over time promote photoswitching towards a PSS that is intermediate between those of pure-365 nm and all-E; this is controlled for in the more reliable ephys measurements). (Table indices: a, data from ref7; b, data from ref2; c, data from ref3; d, data from ref8.) EC50 [nM] (for simple agonism or EA-competitive inhibition)
(§5) E-AzPico 90 (vs 30 nM EA) 67 (vs 30 nM EA) […]
(§6) orange: inhibitory effect ag.: agonistic effect
(§7) 1.1.1 From always-active antagonists and agonists towards efficacy photoswitches […]
(§8) photoisomerising an azobenzene that is merged in at the C’4 position yielding the compounds […]
inhibitory effect for the E-isomers (Supplementary Table 1). Essentially, the effects of Pico145 and AM237 are latent within a single (two-state reversibly photoswitchable) molecule. This combination is what we call an efficacy switch (also see main text Fig. 1e-j).
1.1.2 Mechanistic test for efficacy photoswitching […]
deliver (Fig. 1-2) is a powerful support for an efficacy switch interpretation. To indirectly support this further, we also measured the effects of E-AzPico and E-AzHC against EA-activated TRPC4/5.
Both E-isomers bind to TRPC4/5 and inhibit EA-evoked currents with nanomolar potencies (Supplementary Fig. 2, Supplementary Table 2). This supports the hypothesis that E- […]
(§9) to be an EA-competitive binder5,9,10), so their efficacy as single agent photoswitches results from E/Z-competitive binding that is determined by their PSS. […]
(§10) Supplementary Table 2. […] (a Inhibitory effect measured against 30 nM EA; b Inhibitory effect measured against 50 nM EA). […]

Test [2] has as its target T2, EA-activated TRPC4 (Mus musculus, UniProt Q9QUQ5).
T2 construct: expressed in transfected cells; host or cells: HEK293-mTRPC4β-YFP
T2 sequence (Q9QUQ5 1-890 isoform Q9QUQ5-2): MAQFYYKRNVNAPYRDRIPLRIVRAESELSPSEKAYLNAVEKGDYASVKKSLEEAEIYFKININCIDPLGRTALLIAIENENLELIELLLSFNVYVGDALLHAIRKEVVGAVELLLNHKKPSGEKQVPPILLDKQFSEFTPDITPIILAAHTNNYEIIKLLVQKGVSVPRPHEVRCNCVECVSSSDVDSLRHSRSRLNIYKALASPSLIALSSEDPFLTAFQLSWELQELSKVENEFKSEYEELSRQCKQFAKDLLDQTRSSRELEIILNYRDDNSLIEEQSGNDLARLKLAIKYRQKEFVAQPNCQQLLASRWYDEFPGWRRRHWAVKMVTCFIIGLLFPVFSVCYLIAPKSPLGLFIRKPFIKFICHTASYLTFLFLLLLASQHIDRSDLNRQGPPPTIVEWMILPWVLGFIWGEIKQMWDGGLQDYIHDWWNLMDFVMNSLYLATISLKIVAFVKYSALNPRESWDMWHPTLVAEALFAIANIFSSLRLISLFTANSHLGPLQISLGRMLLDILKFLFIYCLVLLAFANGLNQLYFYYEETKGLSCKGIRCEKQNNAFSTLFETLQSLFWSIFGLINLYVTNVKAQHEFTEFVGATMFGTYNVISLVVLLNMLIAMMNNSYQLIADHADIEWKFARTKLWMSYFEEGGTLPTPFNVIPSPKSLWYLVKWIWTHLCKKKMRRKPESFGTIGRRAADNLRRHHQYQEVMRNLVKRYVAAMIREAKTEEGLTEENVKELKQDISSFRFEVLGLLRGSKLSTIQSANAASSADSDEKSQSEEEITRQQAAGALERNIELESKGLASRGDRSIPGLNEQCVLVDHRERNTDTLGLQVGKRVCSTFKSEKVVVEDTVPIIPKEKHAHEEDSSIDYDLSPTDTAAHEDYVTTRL
Kind of test: FLIPR Ca2+ assay, E isomers silencing EA-activated TRPC4 (HEK293-mTRPC4β-YFP). The class given is cell-based. To be noted: Inhibitory IC50 (versus 30 nM EA) TRPC4, E isomer, thermally relaxed; 30 nM EA.
Excerpt: as §1, §2, §3, §4, §5, §6, §7, §8
deliver (Fig. 1-2) is a powerful support for an efficacy switch interpretation. To indirectly support this further, we also measured the effects of E-AzPico and E-AzHC against EA-activated TRPC4/5. […]
as §9, §10

Test [3] relates to Th+ neurons of Th-GCaMP6f-ΔTrpc5 mice. The test can be described thus: GCaMP6f Ca2+ imaging of Th+ neurons in arcuate nucleus brain slices with 355 nm photoswitching, Th-GCaMP6f-ΔTrpc5 (5ko) mice. To be noted: 500 nM; 355 nm pulse.
Excerpt: slices through the ARC of mice expressing the Ca2+ indicator GCaMP6f in Th+ neurons (Fig. 4),
we investigated (1) whether Ca2+ responses at endogenous TRPC5 expression levels can be
TRPC5 expression using TRPC5-deficient brain slices, (3) whether a dose dependence could be
detected, and (4) whether there are properties in channel activity that can be distinguished between
concentration-response measurements (Fig. 5d).
In test [4] the target is T3, mouse TRPC4β (Mus musculus, UniProt Q9QUQ5).
T3 construct: expressed in transfected cells; host or cells: HEK293 (ATCC CRL 1573), stably transfected, tetracycline-induced
T3 sequence (Q9QUQ5 1-890 isoform Q9QUQ5-2): T2 sequence (Q9QUQ5 1-890 isoform Q9QUQ5-2)
Kind of test: FLIPR Ca2+ influx assay (Fluo-4) with 365/447 nm photoswitching, HEK293 stably expressing mouse TRPC4β. Format: cell-based. To be noted: Z* = mostly-Z PSS under 365 nm LED; Fluo-4-loaded cells; read-out: Agonistic EC50 (365 nm) TRPC4. The source says:
(§11) We initially screened for the photoswitchability of activity in cells using a fluorometric imaging plate reader (FLIPR) calcium flux assay, with HEK293 cells stably expressing mouse TRPC4β or mouse TRPC5. Note, however, that the parallel-throughput FLIPR setup is limited to use fixed light-emitting diodes at 365 nm (good Z) and 447 nm (suboptimal E), which, combined with the slowness of the onset and recovery of the fluorescence readout for calcium, causes the FLIPR results to underestimate the reagents’ true speed, degree and completion of TRPC chromocontrol (shown later). […]
(§12) 3 Cultured Cell Lines (primarily for Fig. 1 and Fig. 2)
(§13) 3.1 FLIPR Ca2+ influx assay in cell suspensions.
(§14) We initially screened for photoswitchability of activity in cells, using a fluorometric imaging plate reader (FLIPR) calcium flux assay, with human embryonic kidney cell line HEK293 stably transfected to express mouse TRPC4β- or TRPC5-CFP fusion protein (HEKmTRPC4β-CFP / HEKmTRPC5-CFP, HEK293 obtained from ATCC CRL 1573). The FLIPR setup provides high-content data, but it is limited to using LED wavelengths of 365 nm (best-Z) and 447 nm (suboptimal-E), while imaging at 470 nm excitation (Fluo-4 AM as Ca2+ indicator; this imaging light counteracts both PSSs). Therefore, we expected the FLIPR results to under-estimate the true chromocontrol power accessible to the reagents.
(§15) Cells were grown to 70%-90% confluency in a 75-cm2 culture flask, trypsinised, washed and resuspended in BSA-containing (0.1%) HBS, and supplemented with 3 µM Fluo-4/AM. Stably TRPC-transfected cells were induced with tetracycline 24 h prior to the experiments.42,43 After incubation at 37°C for 30 min [Fluo-4 loading], cells were again washed, resuspended, and dispensed (40 µl/well) into black pigmented, clear-bottom 384-well plates (Greiner µ-clear). To image the Fluo-4 fluorescence during the application and photoswitching of test compounds, these plates were first mounted to a Tecan Fluent 480 (Tecan, Männedorf, Switzerland) liquid handling device, equipped with a 384-tip multichannel arm and a gripper arm. A custom-made plate-imaging device was used for photoswitching during fluorescence imaging, which features LED-based excitation modules (365 nm and 447 nm used here for photoswitching, and 470 nm used here for Fluo-4 readout) projected onto the bottom of the microwell plate, with a cooled scientific complementary metal oxide sensor (sCMOS) camera (Zyla 5.5, Andor, Belfast, UK) equipped with a Nokton 42.5 mm f/0.95 (Voigtlaender, Fürth, Germany) for detection. The LEDs were controlled with an Arduino device and constant current drivers (1 A for 365 and 470 nm LEDs; 3 A for 447 nm LED); detection was under the control of Micromanager 2.0 software. Compounds were serially diluted and applied to the Fluo-4-loaded cell suspensions inside this custom plate-imaging device, then fluorescence intensities (under 470 nm excitation) were continuously recorded during programmed illuminations e.g. with alternating 365 nm and 447 nm phases.
(§16) Concentration-response curves for the Z-isomers (channel activation) were then constructed from the maximal signals during 365 nm phases, after a suitable number of "priming" cycles to allow the system to reach stable performance (Supplementary Fig. 13).
All experiments were conducted as a minimum of 3 independent experiments with each experiment averaging data in technical duplicates.
Cellular TRPC4 photoswitching: HEK cell Ca2+ influx photomodulation […]
Supplementary Figure 12. […]

The target of test [5] is T4, mouse TRPC5 (Mus musculus, UniProt Q9QX29).
T4 construct: expressed in transfected cells; host or cells: HEK293 (ATCC CRL 1573), stably transfected, tetracycline-induced
T4 sequence (Q9QX29 1-975): T1 sequence (Q9QX29 1-975)
Kind of test: FLIPR Ca2+ influx assay (Fluo-4) with 365/447 nm photoswitching, HEK293 stably expressing mouse TRPC5. Format: cell-based. To be noted: Z* = mostly-Z PSS under 365 nm LED; Fluo-4-loaded cells; read-out: Agonistic EC50 (365 nm) TRPC5.
Excerpt: as §11, §12, §13, §14, §15, §16
All experiments were conducted as a minimum of 3 independent experiments with each experiment averaging data in technical duplicates. […]
Cellular TRPC5 photoswitching: HEK cell Ca2+ influx photomodulation […]
Supplementary Figure 12. […] All […]
four compounds' profiles are consistent with their being ideal efficacy photoswitches (representative traces from one experiment out of ≥3 independent experiments each run in technical duplicates). […]
log c [nM] log c [nM] log c [nM] log c [nM]
Supplementary Figure 13. Dose-response for Z*-AzPico, Z*-AzPico2, Z*-AzHC, and Z*-AzHC2 on TRPC5 and […]

In the case of `Cn1c(=O)n(CCCO)c(=O)c2c1nc(Oc1ccc(/N=N/c3ccccc3)c(Cl)c1)n2Cc1ccc(Cl)cc1` [E-AzHC], the half-inhibitory concentration (IC50) in test [1] (Inhibitory IC50 (versus 30 nM EA) TRPC5, E isomer, thermally relaxed, 30 nM EA) stood at 149 nM; in test [1] (Inhibitory IC50 (versus 50 nM EA) TRPC5, E isomer, 50 nM EA), 177 nM; in test [2], 110 nM.

For `Cn1c(=O)n(CCCO)c(=O)c2c1nc(Oc1ccc(/N=N\c3ccccc3)c(OC(F)(F)F)c1)n2Cc1ccc(Cl)cc1` [Z*-AzPico], in test [3], the “Ca2+ photoresponse in TRPC5-knockout slices” value was “maintained”. The EC50 in test [4] worked out at 3 nM; in test [5] it was 4 nM.
